Assay results as given in patent US20210063391A1, “METHODS AND SYSTEMS FOR BIOCELLULAR MARKER DETECTION AND DIAGNOSIS USING A MICROFLUIDIC PROFILING DEVICE” (The Regents of the University of Michigan, priority 2018, published 2021).

Legend:
p65 = assay: Inflammation signature quantification of treated PBMC lysates by microfluidic immunoblotting (p-p65); assay type: cell-based; settings: PBMCs treated 2 hours
Description: (§1) An exemplary procedure for immunoblotting with a device of the present disclosure is as follows. A protein-containing sample is loaded into the wells of a gel (e.g., polyacrylamide gel) and proteins present in the sample are separated by gel electrophoresis (e.g., native gel electrophoresis, SDS-PAGE, etc.). A membrane (e.g., PVDF membrane) is placed atop the gel to allow transfer of the proteins onto the membrane. The membrane is then placed on a glass slide. A microfluidic device is placed on top of membrane, and the microfluidic channels are aligned with the protein lanes. Blocking buffer (e.g., Tween-20 and BSA) is optionally injected in each of the channels. In embodiments with a blocking step, the inlets/outlets of the channels are covered (e.g., with tape) to minimize evaporation during incubation. Antibodies are injected into the appropriate channels (e.g., different antibodies in each microchannel of a set). […]
(§2) FIGS. 2A-2B include representative graphs of inflammation signature quantification for PBMC lysates treated with LPS, Heparinase III and LPS+Heparinase III for 2 hours, according to one embodiment of the present disclosure. […]
(§3) FIGS. 3A-3B include representative graphs of inflammation signature quantification for PBMC lysates treated with Hyaluronidase (Hyal), Neuraminidase (Neu) and Spironolactone for 2 hours, according to one embodiment of the present disclosure. […]

Stat1/3 = assay: Inflammation signature quantification of treated PBMC lysates by microfluidic immunoblotting (p-Stat1, p-Stat3); assay type: cell-based
Description: as §1, with “set). The inlets/outlets are covered (e.g., with tape) to minimize evaporation during incubation. Following incubation (e.g., 1 hours), the microfluidic device is removed, and the membrane is transferred to a solution of an appropriate secondary antibody (e.g., the membrane is left in this solution for 1 hour, or until the membrane is completely wet). The membrane is removed from the secondary antibody solution and washed with fresh blocking buffer (e.g., 3 minutes, 5 times each). The membrane is transferred to a developing solution (e.g., 30 minutes), and the membrane is removed and rinsed with DI water. The membrane is then allowed to dry.” for “set).”
as §2, §3

| Substance | p65 activation (p65; 1.5 U/mL Heparinase III and/or 1 μg/ml LPS) | activation of Stat1/3 (Stat1/3; PBMCs treated 2 hours, 1.5 U/mL Heparinase III, compared with 1 μg/ml LPS) | effect on LPS Stat1/3 response (Stat1/3; PBMCs, 2 hours, Heparinase III 1.5 U/mL together with LPS 1 μg/ml) | p65 activation (p65; 0.25 U/mL Neuraminidase vs 2 U/mL Hyaluronidase and 100 μM Spironolactone) | Stat1/3 activation (Stat1/3; PBMCs treated 2 hours, 0.25 U/mL Neuraminidase vs 2 U/mL Hyaluronidase and 100 μM Spironolactone) |
| --- | --- | --- | --- | --- | --- |
| Heparinase III | increases p65 activation though similar to LPS response | leads to activation of Stat1/3, although not as much as LPS | attenuates LPS Stat1/3 response when done together |  |  |
| Neuraminidase |  |  |  | increases Stat1/3 and p65 activation as compare to Hyal and Spiro | increases Stat1/3 and p65 activation as compare to Hyal and Spiro |
